Measured values: US7202261B2, “Calcilytic compounds” (NPS Pharmaceuticals, Inc., priority 1996, dated 2007)
pIC50: −log10 of the molar value. Where a name gives a salt, the structure may show the parent alone.

Each compound was assayed against T1, human calcium receptor (Homo sapiens, UniProt P41180) (assay: Calcium Receptor Inhibitor Assay). Conditions: not given.
T1 construct: expressed in transfected cells
T1 sequence (P41180 20-1078): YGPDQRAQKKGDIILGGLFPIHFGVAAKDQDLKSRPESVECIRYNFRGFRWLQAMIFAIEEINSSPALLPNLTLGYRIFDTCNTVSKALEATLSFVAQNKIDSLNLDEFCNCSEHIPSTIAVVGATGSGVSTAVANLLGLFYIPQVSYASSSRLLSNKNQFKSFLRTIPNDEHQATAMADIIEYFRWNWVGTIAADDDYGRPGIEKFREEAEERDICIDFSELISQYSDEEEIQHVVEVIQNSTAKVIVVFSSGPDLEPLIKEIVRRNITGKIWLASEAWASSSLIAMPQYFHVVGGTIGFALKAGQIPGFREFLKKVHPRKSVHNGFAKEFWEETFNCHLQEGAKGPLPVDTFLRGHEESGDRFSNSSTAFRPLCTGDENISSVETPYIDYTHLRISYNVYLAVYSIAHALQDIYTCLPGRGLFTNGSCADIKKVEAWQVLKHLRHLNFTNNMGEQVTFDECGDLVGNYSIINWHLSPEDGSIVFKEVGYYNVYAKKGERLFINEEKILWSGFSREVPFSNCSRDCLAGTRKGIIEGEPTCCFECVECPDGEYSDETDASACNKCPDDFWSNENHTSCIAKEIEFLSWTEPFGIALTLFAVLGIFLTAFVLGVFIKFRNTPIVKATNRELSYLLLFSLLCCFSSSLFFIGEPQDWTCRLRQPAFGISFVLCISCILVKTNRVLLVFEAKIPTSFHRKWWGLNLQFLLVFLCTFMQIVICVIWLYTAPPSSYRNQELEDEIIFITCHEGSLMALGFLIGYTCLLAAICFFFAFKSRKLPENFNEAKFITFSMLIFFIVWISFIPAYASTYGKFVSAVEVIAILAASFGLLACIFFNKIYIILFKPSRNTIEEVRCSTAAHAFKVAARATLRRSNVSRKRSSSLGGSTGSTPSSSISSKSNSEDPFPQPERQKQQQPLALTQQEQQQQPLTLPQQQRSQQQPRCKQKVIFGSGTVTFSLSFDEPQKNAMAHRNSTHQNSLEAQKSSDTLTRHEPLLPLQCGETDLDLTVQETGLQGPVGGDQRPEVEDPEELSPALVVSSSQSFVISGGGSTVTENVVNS
Assay type: cell-based
Protocol: This example illustrates the use of the Calcium Receptor Inhibitor Assay. […] Res. 10 Suppl. […] Intracellular Ca^2+ was measured using fluo-3, a fluorescent calcium indicator.
The procedure was as follows:
1. Cells were maintained in T-150 flasks in selection media (DMEM supplemented with 10% fetal bovine serum and 200 μg/mL hygromycin B), under 5% CO2:95% air at 37° C. and were grown up to 90% confluency.
2. The medium was decanted and the cell monolayer was washed twice with phosphate-buffered saline (PBS) kept at 37° C. After the second wash, 6 mL of 0.02% EDTA in PBS was added and incubated for 4 minutes at 37° C. Following the incubation, cells were dispersed by gentle agitation.
3. Cells from 2 or 3 flasks were pooled and pelleted (100×g). The cellular pellet was resuspended in […] of SPF-PCB+ and pelleted again by centrifugation. This washing was done twice.
SPF-PCB was made up and stored at 4° C. On the day of use, SPF-PCB was supplemented with 1 mg/mL of D-glucose and 1 mM CaCl2 and then split into two fractions. To one fraction, bovine serum albumin (BSA; fraction V, ICN) was added at 5 mg/mL (SPF-PCB+). This buffer was used for washing, loading and maintaining the cells. The BSA-free fraction was used for diluting the cells in the cuvette for measurements of fluorescence.
5. Following the incubation period, the cells were pelleted by centrifugation. The resulting pellet was washed with SPF-PCB+. After this washing, cells were resuspended in SPF-PCB+ at a density of 1–2×10^6 cells/mL.
6. For recording fluorescent signals, 300 μL of cell suspension were diluted in 1.2 mL of SPF buffer containing 1 mM CaCl2 and 1 mg/mL of D-glucose. Measurements of fluorescence were performed at 37° C. with constant stirring using a spectrofluorimeter. […] To calibrate fluorescence signals, digitonin (5 mg/mL in ethanol) was added to obtain Fmax, and the apparent Fmin was determined by adding Tris-EGTA (2.5 M Tris-Base, 0.3 M EGTA).
7. To determine the potential calcilytic activity of test compounds, cells were incubated with test compound (or vehicle as a control) for 90 seconds before increasing the concentration of extracellular Ca^2+ from 1 to 2 mM. Calcilytic compounds were detected by their ability to block, in a concentration-dependent manner, increases in the concentration of intracellular Ca^2+ elicited by extracellular Ca^2+.

Structure (SMILES) | pIC50
CCCCCCCCOCC(O)CNC(C)(C)Cc1ccc(OC)cc1 (stereo not drawn) [Compound 65, N-(2-Hydroxy-3-octanoxypropyl)-1,1-dimethyl-2-(4-methoxyphenyl)ethylamine] | > 6.00
CCCCCCOCC(O)CNC(C)(C)Cc1ccc(OC)cc1 (stereo not drawn) [Compound 66, N-(2-Hydroxy-3-hexanoxypropyl)-1,1-dimethyl-2-(4-methoxyphenyl)ethylamine] | > 5.00
COc1ccc(CC(C)(C)NCC(O)CSc2ccccc2)cc1 (stereo not drawn) [Compound 68, N-(2-Hydroxy-3-thiophenylpropyl)-1,1-dimethyl-2-(4-methoxyphenyl)ethylamine] | > 5.00
CCCCCCCCC(O)CNC(C)(C)Cc1ccc(OC)cc1 (stereo not drawn) [Compound 69, N-(2-Hydroxydecanyl)-1,1-dimethyl-2-(4-methoxyphenyl)ethylamine] | > 6.00
CCCCCCCCCCC(O)CNC(C)(C)Cc1ccc(OC)cc1 (stereo not drawn) [Compound 70, N-(2-Hydroxydodecanyl)-1.1-dimethyl-2-(4-methoxyphenyl)ethylamine] | < 4.30
C=CCCCCCCC(O)CNC(C)(C)Cc1ccc(OC)cc1 (stereo not drawn) [Compound 71, N-(2-Hydroxydec-9-enyl)-1,1-dimethyl-2-(4-methoxyphenyl)ethylamine] | > 5.00
COc1ccc(CC(C)(C)NCC(O)COCC2CCCCC2)cc1 (stereo not drawn) [Compound 75, N-(2-Hydroxy-3-cyclohexylmethoxypropyl)-1,1-dimethyl-2-(4-methoxyphenyl)ethylamine Hydrochloride] | > 5.00
COc1ccc(CC(C)(C)NCC(O)CCc2ccccc2)cc1 (stereo not drawn) [Compound 79, N-(2-Hydroxy-4-phenylbutyl)-1,1-dimethyl-2-(4-methoxyphenyl)ethylamine Hydrochloride] | > 4.30

Same assay, conditions: HEK 293 4.0–7 cells stably expressing the human calcium receptor; fluo-3; read-out: IC50 for blocking increases of intracellular Ca2+ elicited by extracellular Ca2+

Structure (SMILES) | pIC50
COc1ccc(CC(C)(C)NCC(O)COc2cccc(Cl)c2)cc1 (stereo not drawn) [Compound 43, N-[2-Hydroxy-3-(3-chlorophenoxy)propyl]-1,1-dimethyl-2-(4-methoxyphenyl)ethylamine Hydrochloride] | > 6.00
COc1ccc(CC(C)(C)NCC(O)COc2ccc(F)cc2)cc1 (stereo not drawn) [Compound 44, N-[2-Hydroxy-3-(4-fluorophenoxy)propyl]-1,1-dimethyl-2-(4-methoxyphenyl)ethylamine Hydrochloride] | > 6.00
COc1ccc(CC(C)(C)NCC(O)COc2cccc(C)c2)cc1 (stereo not drawn) [Compound 45, N-[2-Hydroxy-3-(3-methylphenoxy)propyl]-1,1-dimethyl-2-(4-methoxyphenyl)ethylamine Hydrochloride] | > 5.00
COc1ccc(CC(C)(C)NCC(O)COc2cccc(C(F)(F)F)c2)cc1 (stereo not drawn) [Compound 46, N-[2-Hydroxy-3-(3-trifluoromethylphenoxy)propyl]-1,1-dimethyl-2-(4-methoxyphenyl)ethylamine Hydrochloride] | > 6.00
COc1ccc(CC(C)(C)NCC(O)COc2ccccc2C(F)(F)F)cc1 (stereo not drawn) [Compound 47, N-[2-Hydroxy-3-(2-trifluoromethylphenoxylpropyl]-1,1-dimethyl-2-(4-methoxyphenyl)ethylamine Hydrochloride] | > 6.00
COc1ccc(CC(C)(C)NCC(O)COc2ccccc2C(C)(C)C)cc1 (stereo not drawn) [Compound 48, N-[2-Hydroxy-3-(2-t-butylphenoxy)propyl]-1,1-dimethyl-2-(4-methoxyphenyl)ethylamine Hydrochloride] | > 5.00
COc1ccc(CC(C)(C)NCC(O)COc2ccccc2OC)cc1 (stereo not drawn) [Compound 49, N-[2-Hydroxy-3-(2-methoxyphenoxy)propyl]-1,1-dimethyl-2-(4-methoxyphenyl)ethylamine Hydrochloride] | > 5.00
COc1ccc(CC(C)(C)NCC(O)COc2cccc(C(C)(C)C)c2)cc1 (stereo not drawn) [Compound 50, N-[2-Hydroxy-3-(3-t-butylphenoxy)propyl]-1,1-dimethyl-2-(4-methoxyphenyl)ethylamine Hydrochloride] | > 6.00
COc1ccc(CC(C)(C)NCC(O)COc2ccc(C(F)(F)F)cc2)cc1 (stereo not drawn) [Compound 51, N-[2-Hydroxy-3-(4-trifluoromethylphenoxy)propyl]-1,1-dimethyl-2-(4-methoxyphenyl)ethylamine Hydrochloride] | > 6.00
COc1ccc(CC(C)(C)NCC(O)COc2ccccc2NC(C)=O)cc1 (stereo not drawn) [Compound 52, N-[2-hydroxy-3-(2-acetamidophenoxy)propyl]-1,1-dimethyl-2(4-methoxyphenyl)ethylamine] | < 4.30
COc1ccc(CC(C)(C)NCCOc2ccccc2)cc1 [Compound 53, N-(2-phenoxyethyl)-1,1-dimethyl-2-(4-methoxyphenyl)ethylamine] | < 4.30
CC(C)(Cc1ccccc1)NCC(O)COc1ccc(C(C)(C)C)cc1 (stereo not drawn) [Compound 54] | < 4.30
CC(C)(Cc1ccccc1)NCC(O)COc1cccc2ccccc12 (stereo not drawn) [Compound 55, N-[2-hydroxy-3-(1-naphthoxy)propyl]-1,1-dimethyl-2-phenylethylamine] | < 4.30
CC(C)(Cc1ccccc1)NCC(O)COc1ccccc1 (stereo not drawn) [Compound 56, N-(2-Hydroxy-3-phenoxypropyl)-1,1-dimethyl-2-phenylethylamine Hydrochloride] | > 4.30
COc1ccc(CC(C)(C)NCC(O)COc2ccc(NC(C)=O)cc2)cc1 (stereo not drawn) [Compound 58, N-[2-hydroxy-3-(4-acetamidophenoxy)propyl]-1,1-dimethyl-2(4-methoxyphenyl)ethylamine] | < 4.30
COc1ccc(CC(C)(C)NCC(COc2ccccc2)OC)cc1 (stereo not drawn) [Compound 59, N-(2-Methoxy-3-phenoxypropyl)-1,1-dimethyl-2-(4-methoxyphenyl)ethylamine Hydrochloride] | > 5.00
COc1ccc(CC(C)(C)NCC(O)COc2ccccc2-c2ccccc2)cc1 (stereo not drawn) [Compound 60, N-[2-hydroxy-3-(2-phenylphenoxy)propyl]-1,1-dimethyl-2-(4-methoxyphenyl)ethylamine] | < 4.30
COc1ccc(CC(C)(C)NCC(O)COc2cccc(-c3ccccc3)c2)cc1 (stereo not drawn) [Compound 61, N-[2-hydroxy-3-(3-phenylphenoxy)propyl]-1,1-dimethyl-2-(4-methoxyphenyl)ethylamine] | > 5.00
COc1ccc(CC(C)(C)NCC(O)COc2ccc(-c3ccccc3)cc2)cc1 (stereo not drawn) [Compound 62, N-[2-Hydroxy-3-(4-phenylphenoxy)propyl]-1,1-dimethyl-2-(4-methoxyphenyl)ethylamine] | < 4.30
CCCCCCCCCCOCC(O)CNC(C)(C)Cc1ccc(OC)cc1 (stereo not drawn) [Compound 67, N-(2-Hydroxy-3-decanoxypropyl)-1,1-dimethyl-2-(4-methoxyphenyl)ethylamine] | > 6.00
CCCCCCCCCCCCOCC(O)CNC(C)(C)Cc1ccc(OC)cc1 (stereo not drawn) [Compound 72, N-(3-Dodecanoxy-2-hydroxypropyl)-1,1-dimethyl-2-(4-methoxyphenyl)ethylamine] | > 6.00
COc1ccc(CC(C)(C)NCC(O)COCC23CC4CC(CC(C4)C2)C3)cc1 (stereo not drawn) [Compound 74, N-[2-Hydroxy-3-(1-adamantylmethoxy)propyl]-1,1-dimethyl-2-(4-methoxyphenyl)ethylamine Hydrochloride] | > 6.00
